Experimental data from patent US6358491B1, “Somatostatin analogs” (Berlex Laboratories, Inc., priority 1999, dated 2002).
Read-outs that look alike come from different tables or passages of the source. Where a SMILES comes first, the peptide text is derived from it. [ ]: non-standard residue; d: D form. ξ: configuration not given here. NMehCys = CN[C@@H](CCS)C(=O)O; Thr(3ξ) = CC(O)[C@H](N)C(=O)O

Tested on: SSTRs, NCI-H69 membranes
Experiment: [125I]SST-14 binding to NCI-H69 cell membranes (SSTR affinity)
Set-up: species or system human
Conditions: inhibition of [125I]SST-14 binding, two-site fit
Experimental: [^125I-Tyr^11] somatostatin-14 ([^125I]SST-14) was obtained from Amersham. Unlabeled somatostatin-14 was purchased either from BACHEM (Torrance, Calif.) or from Sigma Chemical Co. (St. Louis, Mo.). Protease inhibitors, leupeptin, aprotinin, bacitracin, and benzamidine and other reagents were obtained from Sigma. Protease inhibitors were prepared in dimethylsulfoxide (DMSO) at a concentration 500×higher than the final assay concentration. The prepared protease solution was stored at −20° C. and diluted with the buffer solution before use.
Membrane preparations used in these studies were prepared from two commercially available tumor cell lines, the human small cell lung cancer cell line, NCI-H69, and the rat pancreatic tumor cell line, AR42J, obtained from American Type Culture Collection (ATCC) (Manassas, Va.). NCI-H69 cells were maintained by serial passage in RPMI 1640 with 10% fetal calf serum. AR42J cells were maintained in F-12K medium containing 20% fetal calf serum. Cells in culture flasks were incubated at 37° C. with 5% CO2 in air atmosphere following the recommendations of the “Product Sheet” from ATCC.
Cultured cells were first detached from plates with phosphate-buffered saline, pH 7.4, containing 2 mM EDTA, and centrifuged at 1,500×g for 10 min. Cells were then resuspended in 5-10 mL of the homogenization buffer (1 mM sodium bicarbonate, pH 7.4, 1 mM EDTA, 1 mM EGTA, 2.5 mM DTT, 5 μg/mL leupeptin, 5 μg/mL aprotinin, 100 μg/mL bacitracin, 100 μg/mL benzamidine) for 10 min on ice. The cells were lysed for 30 sec twice in a polytron with a setting at 5. The lysate was centrifuged at 1,000×g for 10 min at 4° C. The supernatant was centrifuged at 40,000×g for 20 min at 4° C. This step was repeated twice with the homogenization buffer in the absence of protease inhibitors. The pellet was then resuspended at 1-5 mg membrane protein/mL in 25 mM Tris, pH 7.4 without the addition of protease inhibitors and the membranes were stored at −80° C. before use. Membrane protein concentration was determined spectroscopically using the bicinchonic acid (BCA) protein assay kit (Pierce Chemical Inc. (Rockford, Ill.).
All [^125I]SST-14 binding assays were performed in 0.5 mL binding buffer containing 50 mM HEPES, pH 7.5, 10 mM MgCl2, 0.25% BSA (w/v) containing protease inhibitors (same as above) and incubated at 37° C. for 45 minutes. After incubation, samples were kept at 4° C. and rapidly filtered under vacuum through a Whatman GF/B glass fiber filter with a 12-well harvester (Skatron Instruments Inc., Sterling, Va.). The filter was washed for 9 seconds with cold 50 mM HEPES, pH 7.5, 10 mM MgCl2, 0.25% BSA (w/v). Thirty-five […] of [^125I]SST-14 from Amersham was used in each tube. Peptides were solubilized in DMSO and serially diluted with DMSO. Five μL of peptide in DMSO was used to obtain the final concentration. DMSO (5 μL) was added to the tube without the addition of any peptide or unlabeled SST-14, so that each tube contained 1% DMSO. Non-specific binding was defined as the binding of [^125I]SST-14 which was not displaceable with an excess of unlabeled SST-14 at a concentration of 1×10^−6 M. The bound [^125I]SST-14 without or with excess unlabeled SST-14 (1×10^−6 M) was defined as total binding and nonspecific binding, respectively. The difference between total and nonspecific binding was defined as specific binding. The percent inhibition (% Inh) by peptide was expressed as
% Inh=(total binding−total binding in the presence of peptide)/specific binding×100%
Inclusion of protease inhibitors in homogenizing medium as well as assay buffer is essential to maintain the integrity of both [^125I]SST-14 and somatostatin analogs for the receptor binding assay and to obtain optimal specific binding. The highest specific binding was observed when MgCl2 (10 mM) was included. Membranes were finally resuspended in a sodium-free medium and receptor binding assays were performed in the absence of sodium ions. […]

[1] = read-out: IC50 Values for Uncomplexed Compounds, NCI-H69 (first value)
[2] = read-out: IC50 Values for Uncomplexed Compounds, NCI-H69 (second value)

`C[C@@H](O)[C@@H]1NC(=O)[C@H](CCCCN)NC(=O)[C@@H](Cc2c[nH]c3ccccc23)NC(=O)[C@H](Cc2ccc(O)cc2)NC(=O)[C@H](CCSCC(=O)NC[C@H](N)C(=O)N[C@@H](CCN)C(=O)N[C@@H](CS)C(=O)N[C@H](CO)[C@@H](C)O)N(C)C(=O)[C@H](Cc2ccccc2)NC1=O` [cyclo-Tyr-D-Trp-Lys-Thr-Phe-(N—CH3)Hcy(CH2 CO-β-Dap-Dab-Cys-Thr(ol))] gave an IC50 [1] of 0.642 nM and an IC50 [2] greater than 1000 nM.

Molecule `C[C@@H](O)[C@H](NC(=O)[C@H](CS)NC(=O)[C@H](Cc1ccc(N)cc1)NC(=O)[C@@H](N)CNC(=O)CSCC[C@H]1C(=O)N[C@@H](Cc2ccc(O)cc2)C(=O)N[C@H](Cc2c[nH]c3ccccc23)C(=O)N[C@@H](CCCCN)C(=O)N[C@@H]([C@@H](C)O)C(=O)N[C@@H](Cc2ccccc2)C(=O)N1C)C(=O)NC(CO)CO` [cyclo-YWDKTF.(N—CH3)Hcy(CH2CO.β-Dap.F(4-NH2).CT.S(ol))] has an IC50 [1] of 0.388 nM and an IC50 [2] of 0.388 nM.

`C[C@@H](O)[C@@H]1NC(=O)[C@H](CCCCN)NC(=O)[C@@H](Cc2c[nH]c3ccccc23)NC(=O)[C@H](Cc2ccc(O)cc2)NC(=O)[C@H](CCSCC(=O)NC[C@H](N)C(=O)N[C@@H](CN)C(=O)N[C@@H](CS)C(=O)N[C@H](CO)[C@@H](C)O)N(C)C(=O)[C@H](Cc2ccccc2)NC1=O` [cyclo-Tyr-D-Trp-Les-Thr-Phe-(N—CH3)Hcy(CH2 CO-β-Dap-Dap-Cys-Thr(ol))] gave an IC50 [1] of 0.449 nM and an IC50 [2] of 46.8 nM.

In the case of `C[C@@H](O)[C@@H]1NC(=O)[C@H](CCCCN)NC(=O)[C@@H](Cc2c[nH]c3ccccc23)NC(=O)[C@H](Cc2ccc(O)cc2)NC(=O)[C@H](CCSCC(=O)NC[C@H](N)C(=O)N[C@@H](CCCNC(=N)N)C(=O)N[C@@H](CS)C(=O)N[C@H](CO)[C@@H](C)O)N(C)C(=O)[C@H](Cc2ccccc2)NC1=O` [cyclo-Tyr-D-Trp-Lys-Thr-Phe-(N—CH3)Hcy(CH2 CO-β-Dap-Arg-Cys-Thr(ol))], the IC50 [1] is reported as 0.413 nM and the IC50 [2] is reported as less than 0.001 nM.

Work on `CC(O)[C@@H]1NC(=O)[C@H](CCCCN)NC(=O)[C@@H](Cc2c[nH]c3ccccc23)NC(=O)[C@H](Cc2ccc(O)cc2)NC(=O)[C@H](CCS)N(C)C(=O)[C@H](Cc2ccccc2)NC1=O` (stereo partly drawn) [cyclo-YWDKTF.(N—CH3).Hcy., cyclo-Tyr-D-Trp-Lys-Thr-Phe-(N—CH3)Hcy] (cyclo(F[NMehCys]Y[dW]K[Thr(3ξ)])) yielded an IC50 [1] of 0.21 nM.

Work on `C[C@@H](O)[C@H](NC(=O)[C@H](CS)NC(=O)[C@H](CCN)NC(=O)[C@@H](N)CNC(=O)CSCC[C@H]1C(=O)N[C@@H](Cc2ccc(O)cc2)C(=O)N[C@H](Cc2c[nH]c3ccccc23)C(=O)N[C@@H](CCCCN)C(=O)N[C@@H]([C@@H](C)O)C(=O)N[C@@H](Cc2ccccc2)C(=O)N1C)C(=O)O` [cyclo-Tyr-D-Trp-Lys-Thr-Phe-(N—CH3)Hcy(CH2 CO-β-Dap-Dab-Cys-Thr)] yielded an IC50 [1] of 1.25 nM and an IC50 [2] of 1.25 nM.

With `CC(C)[C@@H]1NC(=O)[C@H](CCCCN)NC(=O)[C@@H](Cc2c[nH]c3ccccc23)NC(=O)[C@H](Cc2ccc(O)cc2)NC(=O)[C@H](CCS)N(C)C(=O)[C@H](Cc2ccccc2)NC1=O` [cyclo-YWDKVF.(N—CH3).Hcy.] (cyclo(Y[dW]KVF[NMehCys])) the IC50 [1] was 0.21 nM.

In the case of `C[C@@H](O)[C@H](NC(=O)[C@H](CS)NC(=O)[C@H](Cc1ccc(N)cc1)NC(=O)[C@@H](N)CNC(=O)CSCC[C@H]1C(=O)N[C@@H](Cc2ccc(O)cc2)C(=O)N[C@H](Cc2c[nH]c3ccccc23)C(=O)N[C@@H](CCCCN)C(=O)N[C@@H]([C@@H](C)O)C(=O)N[C@@H](Cc2ccccc2)C(=O)N1C)C(=O)O` [cyclo-Tyr-D-Trp-Lys-Thr-Phe-(N—CH3)Hcy(CH2 CO-β-Dap-Phe(4-NH2)-Cys-Thr)], the IC50 [1] is reported as 0.641 nM and the IC50 [2] is reported as 0.641 nM.
